Read-outs that look alike come from different tables or passages of the source. No end group written: not given here.
How the values were obtained:
MRSA ATCC 43300 = assay: microbe, parasite or virus in culture; conditions: Staphylococcus aureus, ATCC43300|MRSA
E. coli ATCC 25922 [1] = assay: microbe, parasite or virus in culture; conditions: Escherichia coli
A. baumannii ATCC 19606 = assay: microbe, parasite or virus in culture; conditions: Acinetobacter baumannii
E. coli ATCC 25922 [2] = assay type: cell-based
Text: Antibacterial activity testing (in solid media).

| Compound | zone of inhibition at 64 µg/mL (MRSA ATCC 43300; read-out: Inhibition zone diameter (mm) MRSA ATCC 43300 Rep 1) | zone of inhibition at 64 µg/mL (MRSA ATCC 43300; read-out: Inhibition zone diameter (mm) MRSA ATCC 43300 Rep 2) | zone of inhibition at 64 µg/mL (MRSA ATCC 43300; read-out: Inhibition zone diameter (mm) MRSA ATCC 43300 Rep 3) | zone of inhibition at 64 µg/mL (E. coli ATCC 25922 [1]; ATCC25922, read-out: Inhibition zone diameter (mm) E. coli ATCC 25922 Rep 1) | zone of inhibition at 64 µg/mL (E. coli ATCC 25922 [1]; ATCC25922, read-out: Inhibition zone diameter (mm) E. coli ATCC 25922 Rep 2) | zone of inhibition at 64 µg/mL (E. coli ATCC 25922 [1]; ATCC25922, read-out: Inhibition zone diameter (mm) E. coli ATCC 25922 Rep 3) | zone of inhibition at 64 µg/mL (A. baumannii ATCC 19606; ATCC19606, read-out: Inhibition zone diameter (mm) A. baumannii ATCC 19606 Rep 1) | zone of inhibition at 64 µg/mL (A. baumannii ATCC 19606; ATCC19606, read-out: Inhibition zone diameter (mm) A. baumannii ATCC 19606 Rep 2) | zone of inhibition at 64 µg/mL (A. baumannii ATCC 19606; ATCC19606, read-out: Inhibition zone diameter (mm) A. baumannii ATCC 19606 Rep 3) | inhibition zone (E. coli ATCC 25922 [2]) |
| --- | --- | --- | --- | --- | --- | --- | --- | --- | --- | --- |
| O=C(O)c1cn(C2CC2)c2cc(N3CCNCC3)c(F)cc2c1=O [CIP, Ciprofloxacin] | 27 mm | 28 mm | 29 mm | 42 mm | 40 mm | 42 mm | 27 mm | 28 mm | 27 mm |  |
| LNSQKFPILNLVQLSATR [I_87_SF] |  |  |  |  |  |  |  |  |  | 9-10 mm |

From EP3117830A1, “ANTIBACTERIAL PEPTIDES, AND USES THEREOF” (Nuritas Limited, priority 2015, dated 2017)
